{"source": "ChEMBL document CHEMBL4325834", "about": "“De Novo Molecular Design of a Novel Octapeptide That Inhibits In Vivo Melanogenesis and Has Great Transdermal Ability” (J Med Chem, 2018)", "key": {"[1]": {"assay": "Antioxidant activity assessed as DPPH free radical scavenging activity at 80 uM after 30 mins relative to control", "format": "functional"}, "[2]": {"assay": "Antioxidant activity assessed as ABTS radical scavenging activity at 80 uM after 10 mins relative to control", "format": "functional"}, "[3]": {"assay": "Reducing power of the compound assessed as reducing Fe3+ power at 80 uM using K3Fe(CN)6 in pH 6.6 phosphate buffer relative to control"}, "Tyrosinase": {"biological_target": "T1, Tyrosinase (Agaricus bisporus, UniProt O42713)", "T1 sequence (O42713 whole entry)": "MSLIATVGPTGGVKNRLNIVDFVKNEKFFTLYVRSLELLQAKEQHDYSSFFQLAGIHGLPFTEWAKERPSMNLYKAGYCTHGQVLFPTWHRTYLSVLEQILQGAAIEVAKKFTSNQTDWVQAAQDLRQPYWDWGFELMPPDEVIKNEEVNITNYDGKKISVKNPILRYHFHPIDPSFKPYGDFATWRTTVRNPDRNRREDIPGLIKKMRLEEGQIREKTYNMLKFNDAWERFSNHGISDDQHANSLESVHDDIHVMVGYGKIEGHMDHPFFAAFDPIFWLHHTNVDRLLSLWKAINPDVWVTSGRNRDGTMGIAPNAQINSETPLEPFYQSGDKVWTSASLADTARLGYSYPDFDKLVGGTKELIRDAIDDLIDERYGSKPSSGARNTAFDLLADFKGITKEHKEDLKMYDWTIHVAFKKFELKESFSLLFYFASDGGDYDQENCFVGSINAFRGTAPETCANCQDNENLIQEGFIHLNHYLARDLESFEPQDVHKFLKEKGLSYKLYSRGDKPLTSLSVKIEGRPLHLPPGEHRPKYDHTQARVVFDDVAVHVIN", "assay": "Inhibition of mushroom tyrosinase using L-dopa as substrate assessed as reduction in dopachrome production after 20 mins by spectrophotometry"}, "[4]": {"assay": "Hemolytic activity against human erythrocytes assessed as amount of hemoglobin released from lysed cells up to 150 uM relative to control", "format": "ADME, cell-based, Erythrocyte", "details": "read-out: Activity"}, "B16 [5]": {"system": "B16", "assay": "Cytotoxicity against mouse B16 cells up to 150 uM by MTT assay relative to control", "format": "cell-based"}, "HaCaT": {"system": "HaCaT", "assay": "Cytotoxicity against human HaCaT cells up to 150 uM by MTT assay relative to control", "format": "cell-based"}, "[6]": {"biological_target": "T2, Tyrosinase (Mus musculus) (UniProt P11344)", "T2 sequence (whole entry)": "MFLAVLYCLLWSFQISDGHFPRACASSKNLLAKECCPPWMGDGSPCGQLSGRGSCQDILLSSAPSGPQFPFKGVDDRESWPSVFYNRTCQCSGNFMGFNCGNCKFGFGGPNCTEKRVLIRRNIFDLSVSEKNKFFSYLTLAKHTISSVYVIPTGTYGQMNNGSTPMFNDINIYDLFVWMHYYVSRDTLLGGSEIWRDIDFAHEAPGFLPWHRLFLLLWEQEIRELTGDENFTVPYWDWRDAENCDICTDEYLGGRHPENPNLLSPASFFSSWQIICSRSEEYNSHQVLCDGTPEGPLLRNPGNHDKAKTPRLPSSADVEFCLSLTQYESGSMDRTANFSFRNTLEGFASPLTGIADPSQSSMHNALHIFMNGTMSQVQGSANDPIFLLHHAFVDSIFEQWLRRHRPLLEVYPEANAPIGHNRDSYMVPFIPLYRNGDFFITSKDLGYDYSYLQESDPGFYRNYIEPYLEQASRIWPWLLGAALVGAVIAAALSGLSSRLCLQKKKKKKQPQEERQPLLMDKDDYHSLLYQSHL", "assay": "Inhibition of TYR activity in mouse B16 cells assessed as increase in whitening at 20 uM preincubated for 72 hrs followed L-dopa substrate addition and measured after 4 hrs by fluorescence microscopy", "format": "cell-based"}, "[7]": {"biological_target": "T2, Tyrosinase (Mus musculus)", "assay": "Inhibition of TYR activity in mouse B16 cells assessed as effect on pallet after exfoliation at 20 uM preincubated for 72 hrs followed L-dopa substrate addition and measured after 4 hrs by fluorescence microscopy", "format": "cell-based"}, "[8]": {"biological_target": "T2, Tyrosinase (Mus musculus)", "assay": "Inhibition of TYR activity in mouse B16 cells assessed as melanin levels post exfoliation at 20 uM after 72 hrs by spectrophotometric analysis relative to control", "format": "cell-based", "design": "scale not given: the % may be the effect or the level left"}, "[9]": {"biological_target": "T2, Tyrosinase (Mus musculus)", "assay": "Inhibition of TYR activity in mouse B16 cells 20 uM using L-dopa as substrate after 72 hrs relative to control", "format": "cell-based"}, "B16 [10]": {"system": "B16", "assay": "Downregulation of TYR protein expression in mouse B16 cells after 72 hrs by Western blot analysis", "format": "functional, cell-based"}, "B16 [11]": {"system": "B16", "assay": "Downregulation of MITF protein expression in mouse B16 cells after 72 hrs by Western blot analysis", "format": "functional, cell-based"}, "[12]": {"biological_target": "T2, Tyrosinase (Mus musculus)", "assay": "Inhibition of TYR activity in mouse B16 cells assessed as reduction in melanin levels at 20 uM after 24 hrs by spectrophotometric analysis relative to control", "format": "cell-based"}, "[13]": {"biological_target": "T3, Tyrosinase (Agaricus bisporus) (UniProt O42713)", "T3 sequence (whole entry)": "T1 sequence (O42713 whole entry)", "assay": "Potency index, ratio of IC50 for arbutin to IC50 for test compound for inhibition of mushroom tyrosinase using L-dopa as substrate assessed as reduction in dopachrome production after 20 mins by spectrophotometry"}, "[14]": {"biological_target": "T3, Tyrosinase (Agaricus bisporus)", "assay": "Inhibition of mushroom tyrosinase using L-dopa as substrate assessed as reduction in L-dopa oxidation at IC50 by spectrophotometry"}}, "note": "Active and inactive are the calls of the source. The calls are words filed in the database; no cut-off is given here. Where a SMILES comes first, the peptide text is derived from it."}
{"compound": "CC(C)[C@H](NC(=O)[C@H](CO)NC(=O)[C@H](CCCNC(=N)N)NC(=O)[C@H](CS)NC(=O)[C@@H](NC(=O)[C@H](CCCNC(=N)N)NC(=O)[C@@H](N)Cc1ccccc1)[C@@H](C)O)C(=O)N[C@@H](CS)C(=O)O", "note": "(H-FRTCRSVC-OH)", "values": [{"measurement": "Activity", "setting": "[1]", "value": 94, "unit": "%"}, {"measurement": "Activity", "setting": "[2]", "value": 84, "unit": "%"}, {"measurement": "Activity", "setting": "[3]", "value": 0.25}, {"measurement": "IC50", "setting": "Tyrosinase", "value": 73, "unit": "µM"}, {"measurement": "hemolysis", "setting": "[4]", "value": 3, "unit": "%"}, {"measurement": "Activity", "setting": "B16 [5]", "value": 3, "unit": "%"}, {"measurement": "Activity", "setting": "HaCaT", "value": 2, "unit": "%"}, {"measurement": "inhibition", "setting": "[6]", "value": "Active"}, {"measurement": "Activity", "setting": "[7]", "value": "Active"}, {"measurement": "Activity", "setting": "[8]", "value": 63.5, "unit": "%"}, {"measurement": "inhibition", "setting": "[9]", "value": 16, "unit": "%"}, {"measurement": "inhibition", "setting": "B16 [10]", "value": "Active"}, {"measurement": "inhibition", "setting": "B16 [11]", "value": "Active"}, {"measurement": "inhibition", "setting": "[12]", "value": "Active"}, {"measurement": "Ratio IC50", "setting": "[13]", "value": 10}, {"measurement": "inhibition", "setting": "[14]", "value": "Active"}]}
